According to patent publication US11130769B2 (Prelude Therapeutics Incorporated, priority 2018, dated 2021):
Where two headings read alike, the source gives them in different places.

Key:
[1] = target: MCL-1 (Homo sapiens (Human), UniProt Q07820); experiment: Cell free Mcl-1:Bim affinity assay (fluorescence polarization competition); assay type: binding; settings: 15 nM MCL-1, 5 nM FITC-Bim, 1 hour at room temperature, read-out: BIM_Ki
Description: The binding affinity of each compound was measured via a fluorescence polarization competition assay, in which the compound competes for the same binding site with the ligand, and thus leads to a dose-dependent anisotropy reduction. The tracer ligand utilized was a fluorescein isothiocyanate labelled peptide (FITC-[…]) derived from Bim (GenScript).
The assay was carried out in black half-area 96-well NBS plate (Corning), containing 15 nM of MCL-1 (BPS Bioscience), 5 nM of FITC-Bim and 3-fold serial diluted test compounds in a total volume of 50 μL of assay buffer (20 mM HEPES, 50 mM NaCl, 0.002% Tween 20, 1 mM TCEP, and 1% DMSO). The reaction plate was incubated for 1 hour at room temperature. The change of anisotropy is measured with an Envision multimode plate reader (PerkinElmer) at emission wavelength 535 nm. Fluorescence polarization was calculated in mP unit and the percentage inhibition was calculated by % inhibition=100×(mPDMSO−mP)/(mPDMSO−mPPC), in which mPDMSO is the DMSO control, and mPpc is the positive control. IC50 values were determined from a 10-point dose response curve by fitting the percent inhibition against compound concentration using the GraphPad Prism software. The inhibition constant Ki was subsequently calculated according to the Nikolovska-Coleska's equation (Anal. Biochem., 2004, 332, 261),
[formula] • where [I]50 is the concentration of the free inhibitor at 50% inhibition, [L]50 is the concentration of the free labeled ligand at 50% inhibition, [P]0 is the concentration of the free protein at 0% inhibition, and Kd is the dissociation constant of the protein-ligand complex. See Table F. Caspase 3/7 Activity Assay

[2] = test system: H929 cells; experiment: Cell viability assay (H929 10 FBS); assay type: cell-based; settings: Homo sapiens, NCI-H929, 24 hours, read-out: H929_10FBS IC50
Description: Cell Viability Assay (H929 10 FBS)
Dispense 10 μL aliquot of prepared H929 cells (1:1 ratio of cells:Trypan Blue (#1450013, Bio-Rad)) onto cell counting slide (#145-0011, Bio-Rad) and obtain cell density and cell viability using cell counter (TC20, Bio-Rad). Remove appropriate volume of resuspended cells from culture flask to accommodate 4000 cells/well @ 10 μL/well. Transfer H929 cells to 50 mL conical (#430290, Corning). Spin down at 1000 rpm for 5 min using tabletop centrifuge (SPINCHRON 15, Beckman). Discard supernatant and resuspend cell pellet in modified RPMI 1640 (#10-040-CV, Corning) cell culture media containing 10% FBS (F2422-500 ML, Sigma), sodium pyruvate (100 mM) (#25-000-CL, Corning), HEPES buffer (1 M) (#25-060-CL, Corning) and glucose (200 g/L) (A24940-01, Gibco) to a cell density of 400,000 cells/mL. Dispense 10 μL of resuspended H929 cells per well in 384-well small volume TC treated plate (#784080, Greiner Bio-one) using standard cassette (#50950372, Thermo Scientific) on Multi-drop Combi (#5840310, Thermo Scientific) in laminar flow cabinet. Dispense compounds onto plates using digital liquid dispenser (D300E, Tecan). Incubate plates in humidified tissue culture incubator @ 37° C. for 24 hours. Add 10 μL of prepared CellTiTer-Glo® detection buffer (G7570, Promega) or ATPlite 1 Step detection reagent (#6016731, Perkin Elmer) to each well of 384-well plate using small tube cassette (#24073295, Thermo Scientific) on Combi multi drop, incubate @ RT for 30-60 min. Read plates with microplate reader (PheraStar, BMG Labtech) using 384 well luminescence mode.

Sequence of MCL-1 (Q07820 whole entry): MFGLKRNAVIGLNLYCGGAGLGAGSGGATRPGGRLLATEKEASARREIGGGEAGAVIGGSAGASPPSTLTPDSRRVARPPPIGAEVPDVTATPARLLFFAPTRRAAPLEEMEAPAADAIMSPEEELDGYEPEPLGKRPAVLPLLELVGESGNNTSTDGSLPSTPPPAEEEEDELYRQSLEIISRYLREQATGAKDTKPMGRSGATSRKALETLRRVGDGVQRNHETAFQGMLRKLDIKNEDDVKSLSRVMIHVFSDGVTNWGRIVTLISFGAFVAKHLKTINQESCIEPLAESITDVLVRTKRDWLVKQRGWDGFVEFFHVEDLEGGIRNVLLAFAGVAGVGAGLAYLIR

Compound | Ki ([1]; class symbols) [nM] | IC50 [2] [nM] | Ki ([1]; numeric values) [nM]
CC1(C)OC/C=C/[C@H](OC(=O)NC2CCOCC2)[C@@H]2CC[C@H]2CN2C[C@@]3(CCOc4cc(Cl)ccc43)COc3ccc(cc32)S(=O)(=O)NC1=O [Example 305, [(3R,6R,7S,8E,22S)-7′-Chloro-12,12-dimethyl-13,15,15-trioxo-spiro[11,20-dioxa-15-thia-1,14-diazatetracyclo[14.7.2.03,6.019,24]pentacosa-8,16,18,24-tetraene-22,4′-chromane]-7-yl] N-tetrahydropyran-4-yl-carbamate] | < 1 | < 500 | 
CC1(C)OC/C=C/[C@H](OC(=O)NCC2CC2)[C@@H]2CC[C@H]2CN2C[C@@]3(CCCc4cc(Cl)ccc43)COc3ccc(cc32)S(=O)(=O)NC1=O [Example 183, [(3R,6R,7S,8E,22S)-6′-Chloro-12,12-dimethyl-13,15,15-trioxo-spiro[11,20-dioxa-15-thia-1,14-diazatetracyclo[14.7.2.03,6.019,24]pentacosa-8,16,18,24-tetraene-22,1′-tetralin]-7-yl] N-(cyclopropylmethyl)carbamate] | < 1 | < 500 | 
CN(C(=O)O[C@H]1/C=C/CN(C)C2(CCC2)C(=O)NS(=O)(=O)c2ccc3c(c2)N(C[C@@H]2CC[C@H]21)C[C@@]1(CCCc2cc(Cl)ccc21)CO3)[C@H]1CCOC1 [Example 241, [(3R,6R,7S,8E,22S)-6′-Chloro-11-methyl-12,12-(1,3-propylene)-13,15,15-trioxo-spiro[20-oxa-15-thia-1,11,14-triazatetracyclo[14.7.2.03,6.019,24]pentacosa-8,16,18,24-tetraene-22,1′-tetralin]-7-yl] N-methyl-N-[(3S)-tetrahydrofuran-3-yl]carbamate] | < 1 | < 500 | 
CC(C)C(=O)NS(=O)(=O)c1ccc2c(c1)N(CC1CCC1)CC1(CCCc3cc(Cl)ccc31)CO2 (stereo not shown) [Example 6, N-[6′-Chloro-5-(cyclobutylmethyl)spiro[2,4-dihydro-1,5-benzoxazepine-3,1′-tetralin]-7-yl]sulfonyl-2-methyl-propanamide] |  | > 1000 | 35.7
COC(=O)N1C/C=C/[C@@H](OC)[C@@H]2CC[C@H]2CN2C[C@@]3(CCCc4cc(Cl)ccc43)COc3ccc(cc32)S(=O)(=O)NC(=O)[C@H]1C [Example 134, Methyl (3R,6R,7R,8E,12R,22S)-6′-Chloro-7-methoxy-12-methyl-13,15,15-trioxo-spiro[20-oxa-15-thia-1,11,14-triazatetracyclo[14.7.2.03,6.019,24]pentacosa-8,16,18,24-tetraene-22,1′-tetralin]-11-carboxylate] | 1 to 100 | > 1000 | 
CO[C@H]1/C=C/CN(C)C(C)(C)C(=O)NS(=O)(=O)c2ccc3c(c2)N(C[C@@H]2CC[C@H]21)C[C@@]1(CCCc2cc(Cl)ccc21)CO3 [Example 137, (3R,6R,7S,8E,22S)-6′-Chloro-7-methoxy-11,12,12-trimethyl-15,15-dioxo-spiro[20-oxa-15-thia-1,11,14-triazatetracyclo[14.7.2.03,6.019,24]pentacosa-8,16,18,24-tetraene-22,1′-tetralin]-13-one] | 1 to 100 | < 1000 | 
CO[C@@H]1/C=C/CO[C@@H](C)C(=O)NS(=O)(=O)c2ccc3c(c2)N(C[C@@H]2CC[C@H]21)C[C@@]1(CCCc2cc(Cl)ccc21)CO3 [Example 114, (3R,6R,7R,8E,12S,22S)-6′-Chloro-7-methoxy-12-methyl-15,15-dioxo-spiro[11,20-dioxa-15-thia-1,14-diazatetracyclo[14.7.2.03,6.019,24]pentacosa-8,16,18,24-tetraene-22,1′-tetralin]-13-one] | < 1 | < 1000 | 
CC(=O)NS(=O)(=O)c1ccc2c(c1)N(CC1C[C@@H](C)O[C@@H](C)C1)CC1(CCCc3cc(Cl)ccc31)CO2 (mixture of isomers) [Example 8, N-[6′-Chloro-5-[[rac-(2S,6R)-2,6-dimethyltetrahydropyran-4-yl]methyl]spiro[2,4-dihydro-1,5-benzoxazepine-3,1′-tetralin]-7-yl]sulfonylacetamide] |  | > 1000 | 424
CN1CC[C@@H](NC(=O)O[C@H]2/C=C/COC(C)(C)C(=O)NS(=O)(=O)c3ccc4c(c3)N(C[C@@H]3CC[C@H]32)C[C@@]2(CCCc3cc(Cl)ccc32)CO4)C1 [Example 152, [(3R,6R,7S,8E,22S)-6′-Chloro-12,12-dimethyl-13,15,15-trioxo-spiro[11,20-dioxa-15-thia-1,14-diazatetracyclo[14.7.2.03,6.019,24]pentacosa-8,16,18,24-tetraene-22,1′-tetralin]-7-yl] N-[(3R)-1-methylpyrrolidin-3-yl]carbamate] | < 1 | < 500 | 
CC1(C)OC/C=C/[C@H](OC(=O)N[C@@H]2CCOC2)[C@@H]2CC[C@H]2CN2C[C@@]3(CCCc4cc(Cl)ccc43)COc3ccc(cc32)S(=O)(=O)NC1=O [Example 62, [(3R,6R,7S,8E,22S)-6′-Chloro-12,12-dimethyl-13,15,15-trioxo-spiro[11,20-dioxa-15-thia-1,14-diazatetracyclo[14.7.2.03,6.019,24]pentacosa-8,16,18,24-tetraene-22,1′-tetralin]-7-yl] N-[(3R)-tetrahydrofuran-3-yl]carbamate] | < 1 | < 500 | 
CN(C)CCN(C)C(=O)O[C@H]1/C=C/COC2(CCC2)C(=O)NS(=O)(=O)c2ccc3c(c2)N(C[C@@H]2CC[C@H]21)C[C@@]1(CCCc2cc(Cl)ccc21)CO3 [Example 233, [(3R,6R,7S,8E,22S)-6′-Chloro-12,12-(1,3-propylene)-13,15,15-trioxo-spiro[11,20-dioxa-15-thia-1,14-diazatetracyclo[14.7.2.03,6.019,24]pentacosa-8,16(25),17,19(24)-tetraene-22,1′-tetralin]-7-yl] N-[2-(dimethylamino)ethyl]-N-methyl-carbamate] | < 1 | < 500 | 
CO[C@@H]1/C=C/CCC(=O)NS(=O)(=O)c2ccc3c(c2)N(C[C@@H]2CC[C@H]21)C[C@@]1(CCCc2cc(Cl)ccc21)CO3 [Example 74, (3R,6R,7R,8E,21S)-6′-Chloro-7-methoxy-14,14-dioxo-spiro[19-oxa-14-thia-1,13-diazatetracyclo[13.7.2.03,6.018,23]tetracosa-8,15,17,23-tetraene-21,1′-tetralin]-12-one] | < 1 | > 1000 | 
CC1(C)OC/C=C/[C@H](OC(=O)N2CCN(c3ccccn3)CC2)[C@@H]2CC[C@H]2CN2C[C@@]3(CCCc4cc(Cl)ccc43)COc3ccc(cc32)S(=O)(=O)NC1=O [Example 177, [(3R,6R,7S,8E,22S)-6′-Chloro-12,12-dimethyl-13,15,15-trioxo-spiro[11,20-dioxa-15-thia-1,14-diazatetracyclo[14.7.2.03,6.019,24]pentacosa-8,16,18,24-tetraene-22,1′-tetralin]-7-yl] 4-(2-pyridyl)piperazine-1-carboxylate] | 1 to 100 | < 500 | 
CN([C@H]1/C=C/COC(C)(C)C(=O)NS(=O)(=O)c2ccc3c(c2)N(C[C@@H]2CC[C@H]21)C[C@@]1(CCCc2cc(Cl)ccc21)CO3)S(C)(=O)=O [Example 256, N-Methyl-N-[(3R,6R,7S,8E,22S)-6′-chloro-12,12-dimethyl-13,15,15-trioxo-spiro[11,20-dioxa-15-thia-1,14-diazatetracyclo[14.7.2.03,6.019,24]pentacosa-8,16(25),17,19(24)-tetraene-22,1′-tetralin]-7-yl]methanesulfonamide] | 1 to 100 | > 1000 | 
